Laboratory results taken from ChEMBL document CHEMBL5042500 (J Med Chem, 2022).
In brackets after ≈: the same amount, converted by molar mass. Activity calls are given as the source filed them. The calls are words filed in the database; no cut-off is given here.

Tests used:
[1] = Effect on chondrocyte hypertrophic differentiation mouse ATDC-5 cells assessed as inhibition of […] gene expression incubated for 2 weeks followed by compound added and every 3 days medium is changed measured after 2 weeks by RT-qPCR analysis; type: functional, cell-based
[2] = Intrinsic clearance in human hepatocytes assessed per 10^-6 cells; type: ADME, cell-based, Hepatocyte
[3] = Metabolic stability in Sprague-Dawley rat liver microsomes assessed as compound degradation in presence of NADPH measured after 20 mins; type: ADME, Microsome; details: read-out: Drug degradation
[4] = AUC (0 to 24 hrs) in Lewis rat plasma at 30 mg/kg, po measured after 8 hrs; type: ADME, organism-based; parameters: route oral, dose 30 mg/kg, time 8 hrs
[5] = Permeability in human Caco2 cells at 20 uM incubated for 120 mins by ESI-MS/MS analysis; type: ADME, cell-based; details: Caco-2, read-out: permeability
[6] = Cmax in Sprague-Dawley rat plasma at 30 mg/kg, po; type: ADME, organism-based; parameters: route oral, dose 30 mg/kg
[7] = system: Femur; test: Induction of chondrogenesis in femoral head cartilage isolated from C57BL/6 mouse model of osteoarthritis assessed as reduction in intensity of collagen type x staining incubated for 2 weeks in hypertrophic condition and twice for week medium is changed by immunohistochemical staining based analysis; type: functional, tissue-based
[8] = Metabolic stability in human liver microsomes assessed as compound degradation in presence of NADPH measured after 20 mins; type: ADME, Microsome; details: read-out: Drug degradation
[9] = Aqueous solubility of the compound at pH 7.4; type: physicochemical
[10] = Chemical stability of the compound at pH 7.4 measured after 24 hrs; type: physicochemical; details: buffer, read-out: Stability
[11] = molecular target: T1, Cytochrome P450 3A4 (Homo sapiens, UniProt P08684); test: Inhibition of CYP3A4 in human liver microsomes using testosterone as substrate incubated for 30 mins by LC-MS/MS analysis; type: ADME
[12] = Cmax in Lewis rat femoral head cartilage at 30 mg/kg, po measured after 8 hrs; type: ADME, organism-based, Femur; parameters: route oral, time 8 hrs, dose 30 mg/kg
[13] = Ratio of AUC(0 to 24 hrs) in femoral head to plasma in rat measured after 2 hrs; type: ADME, Bone/Plasma; details: read-out: Selectivity ratio
[14] = molecular target: T1, Cytochrome P450 3A4; test: Inhibition of CYP3A4 in human liver microsomes using midazolam as substrate incubated for 10 mins by LC-MS/MS analysis; type: ADME
[15] = Tmax in Sprague-Dawley rat plasma at 30 mg/kg, po; type: ADME, organism-based
[16] = Tmax in Lewis rat femoral head cartilage at 30 mg/kg, po measured after 8 hrs; type: ADME, organism-based, Femur
[17] = molecular target: T2, hERG (KCNH2) (Homo sapiens, UniProt Q12809); test: Inhibition of human ERG at 1 uM relative to control; type: toxicity
[18] = molecular target: T2, hERG (KCNH2); test: Inhibition of human ERG at 10 uM; type: toxicity
[19] = Cmax in Lewis rat plasma at 30 mg/kg, po measured after 8 hrs; type: ADME, organism-based; parameters: route oral, time 8 hrs, dose 30 mg/kg
[20] = molecular target: T3, Serine/threonine-protein kinase Sgk1 (Homo sapiens, UniProt O00141); test: Inhibition of recombinant human SGK1 expressed in baculovirus expression system using 5-carboxyfluorescein -RPRAATF-NH2 as substrate preincubated for 30 mins followed by substrate addition in presence of 500 uM ATP and measured after 60 mins by microfluidics assay
T3 sequence (O00141 whole entry): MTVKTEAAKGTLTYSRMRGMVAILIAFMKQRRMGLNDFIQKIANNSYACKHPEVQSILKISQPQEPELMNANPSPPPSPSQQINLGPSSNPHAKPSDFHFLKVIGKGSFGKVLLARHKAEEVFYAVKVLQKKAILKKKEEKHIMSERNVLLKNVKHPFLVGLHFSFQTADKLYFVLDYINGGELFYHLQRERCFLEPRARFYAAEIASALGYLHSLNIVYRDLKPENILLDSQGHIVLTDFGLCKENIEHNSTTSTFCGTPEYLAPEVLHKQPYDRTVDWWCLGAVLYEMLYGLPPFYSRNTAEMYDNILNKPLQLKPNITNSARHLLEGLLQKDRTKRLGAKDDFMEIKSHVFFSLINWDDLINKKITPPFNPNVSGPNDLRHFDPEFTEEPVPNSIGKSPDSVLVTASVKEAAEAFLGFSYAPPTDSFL

[21] = molecular target: T4, Serine/threonine-protein kinase Sgk3 (Homo sapiens, UniProt Q96BR1); test: Inhibition of human SGK3 in presence 500 uM presence of ATP
T4 sequence (Q96BR1 whole entry): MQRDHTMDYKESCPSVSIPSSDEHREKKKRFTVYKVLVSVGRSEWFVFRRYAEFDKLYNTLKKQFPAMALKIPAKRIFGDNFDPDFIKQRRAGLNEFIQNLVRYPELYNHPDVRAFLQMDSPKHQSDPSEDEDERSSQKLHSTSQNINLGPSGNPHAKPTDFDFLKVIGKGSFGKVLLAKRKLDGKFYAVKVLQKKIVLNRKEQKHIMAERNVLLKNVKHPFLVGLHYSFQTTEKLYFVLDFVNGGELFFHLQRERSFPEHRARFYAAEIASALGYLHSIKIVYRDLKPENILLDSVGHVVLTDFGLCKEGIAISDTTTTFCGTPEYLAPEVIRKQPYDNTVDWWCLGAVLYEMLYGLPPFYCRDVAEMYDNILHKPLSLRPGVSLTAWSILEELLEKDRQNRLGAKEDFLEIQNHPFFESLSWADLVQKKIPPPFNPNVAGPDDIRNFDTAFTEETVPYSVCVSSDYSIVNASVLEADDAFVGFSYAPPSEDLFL

[22] = molecular target: T5, Serine/threonine-protein kinase Sgk2 (Homo sapiens, UniProt Q9HBY8); test: Inhibition of human SGK2 in presence 500 uM presence of ATP
T5 sequence (Q9HBY8 whole entry): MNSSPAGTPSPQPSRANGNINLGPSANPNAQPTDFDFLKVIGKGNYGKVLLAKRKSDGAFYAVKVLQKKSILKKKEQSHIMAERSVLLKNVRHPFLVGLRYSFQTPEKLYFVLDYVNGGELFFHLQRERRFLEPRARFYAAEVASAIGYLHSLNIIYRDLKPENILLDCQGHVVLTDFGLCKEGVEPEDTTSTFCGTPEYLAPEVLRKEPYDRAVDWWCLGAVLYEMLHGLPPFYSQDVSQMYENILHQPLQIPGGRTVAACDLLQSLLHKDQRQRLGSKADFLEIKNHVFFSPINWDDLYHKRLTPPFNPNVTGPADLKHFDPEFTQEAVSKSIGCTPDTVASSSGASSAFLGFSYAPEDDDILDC

[23] = AUC (0 to 24 hrs) in Lewis rat femoral head cartilage at 30 mg/kg, po measured after 8 hrs; type: ADME, organism-based, Femur; parameters: route oral, dose 30 mg/kg, time 8 hrs
[24] = Tmax in Lewis rat plasma at 30 mg/kg, po measured after 8 hrs; type: ADME, organism-based
[25] = Inhibition of rat SGK1 in presence 500 uM presence of ATP
[26] = molecular target: CYP3A4 (Homo sapiens, UniProt P08684); test: Inhibition of CYP3A4 in human liver microsomes by measuring maximum efficacy; type: ADME
[27] = system: Salmonella typhimurium; test: Mutagenicity in Salmonella typhimurium […] in presence of S9 fraction by ames test; type: toxicity, organism-based; details: salmonella enterica subsp. enterica serovar typhimurium
[28] = molecular target: T6, Serine/threonine-protein kinase Sgk1 (Mus musculus, UniProt Q9WVC6); test: Inhibition of mouse SGK1 in presence 500 uM presence of ATP
T6 sequence (Q9WVC6 whole entry): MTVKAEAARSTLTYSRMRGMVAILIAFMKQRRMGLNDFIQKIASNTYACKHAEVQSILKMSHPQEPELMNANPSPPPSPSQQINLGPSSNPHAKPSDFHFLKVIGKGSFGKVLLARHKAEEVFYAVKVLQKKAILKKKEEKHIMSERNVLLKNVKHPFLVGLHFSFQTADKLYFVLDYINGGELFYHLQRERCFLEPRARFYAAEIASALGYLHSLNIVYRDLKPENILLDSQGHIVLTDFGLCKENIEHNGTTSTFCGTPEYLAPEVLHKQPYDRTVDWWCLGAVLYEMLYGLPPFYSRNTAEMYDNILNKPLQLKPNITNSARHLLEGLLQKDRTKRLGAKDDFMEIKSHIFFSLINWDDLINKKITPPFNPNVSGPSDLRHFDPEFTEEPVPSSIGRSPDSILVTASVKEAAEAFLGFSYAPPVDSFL

[29] = Half life in Sprague-Dawley rat plasma at 30 mg/kg, po; type: ADME, organism-based
[30] = Metabolic stability in CD1 mouse liver microsomes assessed as compound degradation in presence of NADPH measured after 20 mins; type: ADME, Microsome; details: read-out: Drug degradation
[31] = molecular target: T3, Serine/threonine-protein kinase Sgk1; test: Inhibition of recombinant human SGK1 expressed in baculovirus expression system using 5-carboxyfluorescein -RPRAATF-NH2 as substrate preincubated for 30 mins followed by substrate addition in presence of 10 uM ATP and measured after 60 mins by microfluidics assay
[32] = Distribution coefficient, logD of compound at pH 7.4 by chromatographic analysis; type: physicochemical; details: octanol/water
[33] = AUC (0 to 24 hrs) in Sprague-Dawley rat plasma at 30 mg/kg, po; type: ADME, organism-based; parameters: time < 24 hr, route oral, dose 30 mg/kg

T2 sequence (Q12809 whole entry): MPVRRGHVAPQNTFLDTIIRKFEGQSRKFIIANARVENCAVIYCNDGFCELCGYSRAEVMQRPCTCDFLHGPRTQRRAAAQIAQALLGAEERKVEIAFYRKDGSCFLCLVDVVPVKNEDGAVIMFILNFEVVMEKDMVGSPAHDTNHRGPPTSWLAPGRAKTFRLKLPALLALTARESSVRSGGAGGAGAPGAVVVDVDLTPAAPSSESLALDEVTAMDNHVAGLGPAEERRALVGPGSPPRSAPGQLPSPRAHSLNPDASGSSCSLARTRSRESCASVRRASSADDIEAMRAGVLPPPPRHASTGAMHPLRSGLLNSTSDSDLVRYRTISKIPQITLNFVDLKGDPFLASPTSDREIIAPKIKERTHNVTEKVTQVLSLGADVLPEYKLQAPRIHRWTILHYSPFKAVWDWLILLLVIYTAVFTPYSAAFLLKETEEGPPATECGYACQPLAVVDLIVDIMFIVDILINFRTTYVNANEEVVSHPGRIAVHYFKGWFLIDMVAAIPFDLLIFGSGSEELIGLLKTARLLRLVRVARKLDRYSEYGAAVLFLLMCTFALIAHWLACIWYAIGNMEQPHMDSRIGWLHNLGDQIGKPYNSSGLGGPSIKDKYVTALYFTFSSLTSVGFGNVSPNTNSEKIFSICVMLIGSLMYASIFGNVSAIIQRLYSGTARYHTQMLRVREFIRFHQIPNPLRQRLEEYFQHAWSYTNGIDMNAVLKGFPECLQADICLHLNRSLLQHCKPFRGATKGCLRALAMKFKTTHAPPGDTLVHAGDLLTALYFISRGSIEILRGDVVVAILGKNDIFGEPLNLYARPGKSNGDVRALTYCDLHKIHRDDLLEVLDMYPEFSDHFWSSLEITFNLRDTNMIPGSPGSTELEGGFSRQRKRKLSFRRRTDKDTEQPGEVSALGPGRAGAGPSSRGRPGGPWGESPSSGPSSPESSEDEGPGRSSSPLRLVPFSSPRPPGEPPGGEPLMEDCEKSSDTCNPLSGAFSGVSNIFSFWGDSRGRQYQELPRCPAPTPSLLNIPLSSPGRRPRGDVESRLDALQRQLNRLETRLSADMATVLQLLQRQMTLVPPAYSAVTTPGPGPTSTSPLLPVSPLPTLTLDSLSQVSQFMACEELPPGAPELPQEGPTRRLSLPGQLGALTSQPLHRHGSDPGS
T1 sequence (P08684 whole entry): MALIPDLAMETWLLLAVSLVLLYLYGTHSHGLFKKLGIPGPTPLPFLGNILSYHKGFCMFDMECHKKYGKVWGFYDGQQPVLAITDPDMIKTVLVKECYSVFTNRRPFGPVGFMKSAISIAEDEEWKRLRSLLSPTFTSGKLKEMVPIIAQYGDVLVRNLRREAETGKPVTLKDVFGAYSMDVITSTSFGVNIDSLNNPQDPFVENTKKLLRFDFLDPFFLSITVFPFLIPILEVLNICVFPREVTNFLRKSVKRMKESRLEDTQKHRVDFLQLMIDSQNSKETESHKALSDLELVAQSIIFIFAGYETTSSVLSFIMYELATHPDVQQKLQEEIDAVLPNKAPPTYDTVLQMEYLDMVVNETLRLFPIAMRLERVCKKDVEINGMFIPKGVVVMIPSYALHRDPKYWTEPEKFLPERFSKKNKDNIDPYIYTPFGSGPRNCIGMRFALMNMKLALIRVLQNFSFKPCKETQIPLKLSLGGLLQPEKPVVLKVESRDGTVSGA
Sequence of CYP3A4 (P08684 whole entry): as above

## N#Cc1ccc(Cl)cc1S(=O)(=O)Nc1ccc(-c2ncc3c(N)n[nH]c3n2)cc1
[1]
  IC50: 550 nM
[2]
  CLH: 0.005 mL/h
[3]
  metabolised at 20 min: 2%
[4]
  AUC(0-t) at 8 h: 33000 ng·h/mL
[5]
  Papp at 2 h, 20 µM: 1.5 ×10⁻⁶ cm/s
[6]
  Cmax: 10600 ng/mL
[7]
  Activity: Active
[8]
  metabolised at 20 min: 3%
[9]
  solubility: 58 µg/mL (≈ 136 µM)
[10]
  remaining at 24 h: 100%
[11]
  IC50: > 30000 nM
[12]
  Cmax: 890 ng/mL
[13]
  Kp at 2 h: 0.047
[14]
  IC50: > 30000 nM
[15]
  Tmax: 4 h
[16]
  Tmax: 2 h
[17]
  inhibition at 1 µM: 0%
[18]
  inhibition at 10 µM: 11%
[19]
  Cmax: 2970 ng/mL
[20]
  IC50: 9 nM
[21]
  IC50: 211 nM
[22]
  IC50: 21 nM
[23]
  AUC(0-t) at 8 h: 5200 ng·h/mL
[24]
  Tmax: 4 h
[25]
  IC50: 303 nM
[26]
  Emax: 17%
[27]
  Activity: Non-Toxic
[28]
  IC50: 294 nM
[29]
  half-life: 2.8 h
[30]
  metabolised at 20 min: 3%
[31]
  IC50: 3 nM
[32]
  chromatographic logD: 1.13
[33]
  AUC(0-t) at 24 h: 110000 ng·h/mL
